Where a SMILES comes first, the peptide text is derived from it. Bridges are numbered along the chain shown (N, C = ends). [ ]: non-standard residue; d: D form. The star is where a group is joined. Phe(3-CF3) = N[C@@H](Cc1cccc(C(F)(F)F)c1)C(=O)O; Ala(morpholin-4-yl) = N[C@@H](CN1CCOCC1)C(=O)O; Phe(4-COOH) = N[C@@H](Cc1ccc(C(=O)O)cc1)C(=O)O; Bip = N[C@@H](Cc1ccc(-c2ccccc2)cc1)C(=O)O; Phe(3-OMe) = COc1cccc(C[C@H](N)C(=O)O)c1; Phe(3-F) = N[C@@H](Cc1cccc(F)c1)C(=O)O; Phe(3-Me) = Cc1cccc(C[C@H](N)C(=O)O)c1; Val(3-OH) = CC(C)(O)[C@H](N)C(=O)O; 4Pal = N[C@@H](Cc1ccncc1)C(=O)O; Cha = N[C@@H](CC1CCCCC1)C(=O)O; Cit = NC(=O)NCCC[C@H](N)C(=O)O; Carboxymethyl = O=C(O)C*; Nle = CCCC[C@H](N)C(=O)O; Orn = NCCC[C@H](N)C(=O)O; dDap = NC[C@@H](N)C(=O)O; Dab = NCC[C@H](N)C(=O)O; Nva = CCC[C@H](N)C(=O)O; Dap = NC[C@H](N)C(=O)O; NHCH2CH2OMe = COCCN*
Target: T1, human PD-1 / PD-L1-Ig binding on Jurkat cell line over-expressing human PD-1 (Jurkat-PD-1) (Homo sapiens, UniProt Q15116)
T1 construct: expressed in transfected cells; host or cells: Jurkat
Test: Jurkat-PD-1 Cell Binding High-Content Screening Assay (CBA)
Type: cell-based
Details: Jurkat HPD1_PDL1 IC50, Jurkat-PD-1 cells, PE-labeled PD-L1-Ig 20 nM final
Outline: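 PE-PD-L1-Ig 20 nM final; cells in DMEM/10% FCS; cpd pre-incubation 2 h, 37° C; ligand 1 h; PFA fix + Hoechst 33342; high-content imaging read-out.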

T1 sequence (Q15116 25-288): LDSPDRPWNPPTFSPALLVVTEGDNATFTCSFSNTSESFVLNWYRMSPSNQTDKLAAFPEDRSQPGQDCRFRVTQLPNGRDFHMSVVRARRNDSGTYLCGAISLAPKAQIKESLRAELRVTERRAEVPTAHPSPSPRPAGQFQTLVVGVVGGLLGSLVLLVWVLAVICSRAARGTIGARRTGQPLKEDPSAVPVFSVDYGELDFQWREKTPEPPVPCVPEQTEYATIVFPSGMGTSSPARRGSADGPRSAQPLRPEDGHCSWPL

SMILES	IC50 [nM]
CC(C)C[C@H]1NC(=O)[C@H](CCCN)NC(=O)[C@H](C(C)C)NC(=O)[C@H](Cc2ccc(-c3ccccc3)cc2)NC(=O)[C@H](C(C)C)NC(=O)[C@H](Cc2c[nH]c3ccccc23)NC(=O)[C@H](CC(=O)O)NC(=O)[C@H](Cc2ccc(OCC(=O)O)cc2)NC(=O)[C@H](Cc2ccc(OCC(=O)O)cc2)NC(=O)CSC[C@@H](C(=O)N[C@@H](C)C(N)=O)NC(=O)[C@H]([C@@H](C)O)NC(=O)[C@H](C(C)C)NC(=O)[C@H](CC2CCCCC2)NC(=O)[C@H](Cc2c[nH]cn2)NC1=O [Compound 1591]	17.9

Same assay, conditions: Jurkat-PD-1 cells, PE-labeled PD-L1-Ig 20 nM final; read-out: Jurkat HPD1_PDL1 IC50

IC50 [nM]	SMILES
5.7	Cc1cccc(C[C@@H]2NC(=O)[C@H](CC(=O)O)NC(=O)[C@H](Cc3ccc(C(=O)O)cc3)NC(=O)[C@H](Cc3ccncc3)NC(=O)CSC[C@@H](C(=O)N[C@@H](CCN)C(N)=O)NC(=O)[C@H](CO)NC(=O)[C@H](C(C)(C)O)NC(=O)[C@H](CC3CCCCC3)NC(=O)[C@H](CCN)NC(=O)[C@@H](CC(C)C)NC(=O)[C@H](CCCN)NC(=O)[C@H](Cc3ccc(OCC(=O)O)cc3)NC(=O)[C@H](Cc3ccc(-c4ccccc4)cc3)NC(=O)[C@H](Cc3ccc(C(=O)O)cc3)NC2=O)c1 [Compound 2624] ({CH2CO}-[4Pal][Phe(4-COOH)]D[Phe(3-Me)][Phe(4-COOH)][Bip]Y(Carboxymethyl)[Orn][dL][Dab][Cha][Val(3-OH)]SC[Dab]-NH2; thioether N-14)
7.4	COc1cccc(C[C@@H]2NC(=O)[C@H](CC(=O)O)NC(=O)[C@H](Cc3ccc(OCC(=O)O)cc3)NC(=O)[C@H](Cc3ccncc3)NC(=O)CSC[C@@H](C(=O)N[C@@H](C)C(N)=O)NC(=O)[C@H]([C@@H](C)O)NC(=O)[C@H](C(C)C)NC(=O)[C@H](CC(C)C)NC(=O)[C@H](CCN)NC(=O)[C@@H](CC(C)C)NC(=O)[C@H](CCCN)NC(=O)[C@H](CCCNC(N)=O)NC(=O)[C@H](Cc3ccc(-c4ccccc4)cc3)NC(=O)[C@H](C(C)C)NC2=O)c1 [Compound 1185] ({CH2CO}-[4Pal]Y(Carboxymethyl)D[Phe(3-OMe)]V[Bip][Cit][Orn][dL][Dab]LVTCA-NH2; thioether N-14)
4.4	CCC[C@@H]1NC(=O)CSC[C@@H](C(=O)N[C@@H](CCN)C(=O)NCCOC)NC(=O)[C@H](CO)NC(=O)[C@H](C(C)(C)O)NC(=O)[C@H](CC2CCCCC2)NC(=O)[C@H](CCN)NC(=O)[C@@H](CC(C)C)NC(=O)[C@H](CCCN)NC(=O)[C@H](Cc2ccc(OCC(=O)O)cc2)NC(=O)[C@H](Cc2ccc(-c3ccccc3)cc2)NC(=O)[C@H](Cc2ccc(OCC(=O)O)cc2)NC(=O)[C@H](Cc2cccc(C)c2)NC(=O)[C@H](CC(=O)O)NC(=O)[C@H](Cc2ccc(OCC(=O)O)cc2)NC1=O [Compound 2074] ({CH2CO}-[Nva]Y(Carboxymethyl)D[Phe(3-Me)]Y(Carboxymethyl)[Bip]Y(Carboxymethyl)[Orn][dL][Dab][Cha][Val(3-OH)]SC[Dab]-NHCH2CH2OMe; thioether N-14)
7.3	CCCC[C@@H]1NC(=O)[C@H](CCN)NC(=O)[C@@H](CC(C)C)NC(=O)[C@H](CCCN)NC(=O)[C@H](C(C)C)NC(=O)[C@H](Cc2ccc(-c3ccccc3)cc2)NC(=O)[C@H](CC(C)C)NC(=O)[C@H](Cc2c[nH]c3ccccc23)NC(=O)[C@H](CC(=O)O)NC(=O)[C@H](Cc2ccc(C(=O)O)cc2)NC(=O)[C@H](Cc2ccc(OCC(=O)O)cc2)NC(=O)CSC[C@@H](C(=O)NCC(N)=O)NC(=O)[C@H](CO)NC(=O)[C@H](C(C)C)NC1=O [Compound 1410] ({CH2CO}-Y(Carboxymethyl)[Phe(4-COOH)]DWL[Bip]V[Orn][dL][Dab][Nle]VSCG-NH2; thioether N-14)
182	CCC(C)[C@@H]1NC(=O)[C@H](Cc2ccc(-c3ccccc3)cc2)NC(=O)[C@H](C(C)C)NC(=O)[C@H](Cc2cccc(C)c2)NC(=O)[C@H](CC(=O)O)NC(=O)[C@H](Cc2ccc(-c3cccc(C(=O)O)c3)cc2)NC(=O)[C@H](Cc2ccc(OCC(=O)O)cc2)NC(=O)CSC[C@@H](C(=O)N[C@@H](C)C(N)=O)NC(=O)[C@H]([C@@H](C)O)NC(=O)[C@H](C(C)C)NC(=O)[C@H](CC2CCCCC2)NC(=O)[C@H](CCN)NC(=O)[C@@H](CC(C)C)NC(=O)[C@H](CCCN)NC1=O (stereo partly drawn) [Compound 2225]
5	CC[C@H](C)[C@@H]1NC(=O)[C@H](Cc2ccc(-c3ccccc3)cc2)NC(=O)[C@H](C(C)C)NC(=O)[C@H](Cc2c[nH]c3ccccc23)NC(=O)[C@H](CC(=O)O)NC(=O)[C@H](Cc2ccc(OCC(=O)O)cc2)NC(=O)[C@H](CN)NC(=O)CSC[C@@H](C(=O)N[C@@H](C)C(N)=O)NC(=O)[C@H]([C@@H](C)O)NC(=O)[C@H](C(C)C)NC(=O)[C@H](CC2CCCCC2)NC(=O)[C@H](CCN)NC(=O)[C@@H](CC(C)C)NC(=O)[C@H](CCCN)NC1=O [Compound 1391]
21.7	CCCC[C@@H]1NC(=O)[C@H](CC(N)=O)NC(=O)[C@@H](CC(C)C)NC(=O)[C@H](CCCN)NC(=O)[C@H](C(C)C)NC(=O)[C@H](Cc2ccc(-c3ccccc3)cc2)NC(=O)[C@H](CC(C)C)NC(=O)[C@H](Cc2c[nH]c3ccccc23)NC(=O)[C@H](CC(=O)O)NC(=O)[C@H](Cc2ccc(C(=O)O)cc2)NC(=O)[C@H](Cc2ccc(OCC(=O)O)cc2)NC(=O)CSC[C@@H](C(=O)NCC(N)=O)NC(=O)[C@H](CO)NC(=O)[C@H](C(C)C)NC1=O [Compound 1340] ({CH2CO}-Y(Carboxymethyl)[Phe(4-COOH)]DWL[Bip]V[Orn][dL]N[Nle]VSCG-NH2; thioether N-14)
34.5	CC(C)C[C@H]1NC(=O)[C@H](CCCN)NC(=O)[C@H](CCCNC(N)=O)NC(=O)[C@H](Cc2ccc(-c3ccccc3)cc2)NC(=O)[C@H](C(C)C)NC(=O)[C@H](Cc2c[nH]c3ccccc23)NC(=O)[C@H](CC(=O)O)NC(=O)[C@H](Cc2ccc(OCC(=O)O)cc2)NC(=O)[C@H](CN)NC(=O)CSC[C@@H](C(=O)N[C@@H](C)C(N)=O)NC(=O)[C@H]([C@@H](C)O)NC(=O)[C@H](C(C)C)NC(=O)[C@H](CC2CC2)NC(=O)[C@H](CCN)NC1=O [Compound 1363]
43.1	CC(C)C[C@H]1NC(=O)[C@H](CCCN)NC(=O)[C@H](CCCNC(N)=O)NC(=O)[C@H](Cc2ccc(-c3ccccc3)cc2)NC(=O)[C@H](C(C)C)NC(=O)[C@H](Cc2c[nH]c3ccccc23)NC(=O)[C@H](CC(=O)O)NC(=O)[C@H](Cc2cccc(C(F)(F)F)c2)NC(=O)[C@H](CN)NC(=O)CSC[C@@H](C(=O)N[C@@H](C)C(N)=O)NC(=O)[C@H]([C@@H](C)O)NC(=O)[C@H](C(C)C)NC(=O)[C@H](CC2CCCCC2)NC(=O)[C@H](CCN)NC1=O [Compound 2092] ({CH2CO}-[Dap][Phe(3-CF3)]DWV[Bip][Cit][Orn][dL][Dab][Cha]VTCA-NH2; thioether N-14)
16.1	CC(C)C[C@H]1NC(=O)[C@H](CCCN)NC(=O)[C@H](CCCNC(N)=O)NC(=O)[C@H](Cc2ccc(-c3ccccc3)cc2)NC(=O)[C@H](C(C)C)NC(=O)[C@H](Cc2c[nH]c3ccccc23)NC(=O)[C@H](CC(=O)O)NC(=O)[C@H](Cc2ccc(O)cc2)NC(=O)[C@H](CC(N)=O)NC(=O)CSC[C@@H](C(=O)N[C@@H](C)C(N)=O)NC(=O)[C@H]([C@@H](C)O)NC(=O)[C@H](C(C)C)NC(=O)[C@H](CC2CCCCC2)NC(=O)[C@H](CCN)NC1=O [Compound 1161] ({CH2CO}-NYDWV[Bip][Cit][Orn][dL][Dab][Cha]VTCA-NH2; thioether N-14)
17.7	CC(C)C[C@@H]1NC(=O)[C@H](CCN)NC(=O)[C@@H](CC(C)C)NC(=O)[C@@H](CN)NC(=O)[C@H](C(C)C)NC(=O)[C@H](Cc2ccc(-c3ccccc3)cc2)NC(=O)[C@H](C(C)C)NC(=O)[C@H](Cc2c[nH]c3ccccc23)NC(=O)[C@H](CC(=O)O)NC(=O)[C@H](Cc2ccc(O)cc2)NC(=O)[C@H](CC(N)=O)NC(=O)CSC[C@@H](C(=O)N[C@@H](C)C(N)=O)NC(=O)[C@H]([C@@H](C)O)NC(=O)[C@H](C(C)C)NC1=O [Compound 1022] ({CH2CO}-NYDWV[Bip]V[dDap][dL][Dab]LVTCA-NH2; thioether N-14)
11.2	CC(C)C[C@H]1NC(=O)[C@H](CCCN)NC(=O)[C@H](C(C)C)NC(=O)[C@H](Cc2ccc(-c3ccccc3)cc2)NC(=O)[C@H](C(C)C)NC(=O)[C@H](Cc2c[nH]c3ccccc23)NC(=O)[C@H](CC(=O)O)NC(=O)[C@H](Cc2ccc(OCC(=O)O)cc2)NC(=O)[C@H](CN)NC(=O)CSC[C@@H](C(=O)N[C@@H](C)C(N)=O)NC(=O)[C@H]([C@@H](C)O)NC(=O)[C@H](C(C)C)NC(=O)[C@H](Cc2cccc(F)c2)NC(=O)[C@H](CCN)NC1=O [Compound 1672] ({CH2CO}-[Dap]Y(Carboxymethyl)DWV[Bip]V[Orn][dL][Dab][Phe(3-F)]VTCA-NH2; thioether N-14)
3.7	CC(C)C[C@H]1NC(=O)[C@H](CCCN)NC(=O)[C@H](Cc2ccc(C(=O)O)cc2)NC(=O)[C@H](Cc2ccc(-c3ccccc3)cc2)NC(=O)[C@H](Cc2ccc(-c3ccccc3)cc2)NC(=O)[C@H](Cc2cccc(C(F)(F)F)c2)NC(=O)[C@H](CC(=O)O)NC(=O)[C@H](Cc2ccc(C(=O)O)cc2)NC(=O)[C@H](CN2CCOCC2)NC(=O)CSC[C@@H](C(=O)N[C@@H](CCN)C(N)=O)NC(=O)[C@H](CCC(=O)O)NC(=O)[C@H](C(C)C)NC(=O)[C@H](CC2CCCCC2)NC(=O)[C@H](CCN)NC1=O [Example 2746] ({CH2CO}-[Ala(morpholin-4-yl)][Phe(4-COOH)]D[Phe(3-CF3)][Bip][Bip][Phe(4-COOH)][Orn][dL][Dab][Cha]VEC[Dab]-NH2; thioether N-14)
23.3	CC(C)C[C@H]1NC(=O)[C@H](CCCN)NC(=O)[C@H](C(C)C)NC(=O)[C@H](Cc2ccc(-c3ccccc3)cc2)NC(=O)[C@H](C(C)C)NC(=O)[C@H](Cc2c[nH]c3ccccc23)NC(=O)[C@H](CC(=O)O)NC(=O)[C@H](Cc2ccc(OCC(=O)O)cc2)NC(=O)[C@H](CN)NC(=O)CSC[C@@H](C(=O)N[C@@H](C)C(N)=O)NC(=O)[C@H]([C@@H](C)O)NC(=O)[C@H](C(C)C)NC(=O)[C@H](CC2CCCCC2)NC(=O)[C@H](CCC(=O)O)NC1=O [Compound 1522] ({CH2CO}-[Dap]Y(Carboxymethyl)DWV[Bip]V[Orn][dL]E[Cha]VTCA-NH2; thioether N-14)
